“Also recorded” adds a separate entry of the source.
Columns and labels:
LamR = LamR (Homo sapiens, UniProt P08865); assay: Small-molecule inhibition of recombinant LamR binding to laminin coated surface; details: for Effect on LamR binding to laminin (in words): purified recombinant LamR, FIG. 8a; for Reduction of LamR binding to laminin relative to the vehicle control (DMSO alone): purified recombinant LamR pre-incubated with small molecule, dose-dependent (FIG. 8a)
Protocol: Compounds that interact with this described pocket, MRT (LRI) and MRF (LRI-F), display the properties of LamR inhibitors and are preferred for use in the methods of the present application. […] Binding was not reduced by several negative control compounds (Negative and DBP).
(§1) Wild type and mutant LamR binding affinity for laminin were tested in vitro. Clear polystyrene ELISA 96-well microplates, pre-coated with murine laminin (NEBiolabs), were blocked for 1 hour at 37° C. with blocking buffer (2% FCS, 1 mg/ml BSA, 0.1% sodium azide in PBS). Wells were incubated with increasing concentrations of purified wild type or mutant LamR for 1 h at 37° C. If a small molecule's effects on laminin binding were to be determined, the small molecule was pre-incubated with purified LamR for 15 minutes at 37° C. prior to addition of the mixture to the pre-coated plate. Each well was washed three times with wash buffer (0.5% Tween in PBS). Penta-His HRP conjugate (1:500) (Qiagen) was incubated for 2 h at RT and wells were washed three times with wash buffer. Substrate solution was added and incubated for approximately 10 minutes before reading the fluorescent absorbance detected at 490 nm on an ELISA plate reader (ELX800, Biotek Instruments, Inc.). Controls for buffer alone and binding of a nonspecific protein, A. fulgidus S2p, were also tested. Experiments were performed in triplicate. A binding curve and Kd were generated for wild type and mutant LamR using Prism software. The Kd was calculated using a one-site binding hyperbola and the equation Y=Bmax×X/(Kd+X). Each group was tested in triplicate and binding affinity was determined by normalizing to background fluorescence.

HT1080 cells [1] = assay: HT1080 cell migration towards 10% FBS; format: cell-based, human
Protocol: In order to understand how this in vitro result translated into the cellular context, the ability of cells to migrate toward growth medium was tested in the presence and absence of the LamR inhibitors of the present invention. Since LamR on the cell surface serves the purpose of binding extracellular matrix laminin and facilitates migration and metastasis, it was expected that as inhibitors of cell surface LamR, the compounds of the present invention would reduce the migratory capability of cells. […] The migration of HT1080 cells was reduced to a level equivalent to the no migration control of no serum (No FBS).
HT1080 cells were tested for their ability to migrate toward normal growth media supplemented with 10% FBS or to 10 μg/mL purified laminin (Invitrogen) using the CytoSelect™ 24-well cell migration assay (8 μm, Colorimetric Format) (Cell Biolabs, Inc.). HT1080 cells were obtained from the American Type Culture Collection (Manassas, Va.). HT1080 cells were maintained in Dulbecco's modified Eagle's medium—[…] with 10% FBS. […] After agitation for 10 min at room temperature in extraction solution, 100 μl of each sample was transferred to an ELISA plate and read at 630 nm. […] Results were plotted using GraphPad Prism software, and statistical significance was calculated using a standard Student's t-test.

[2] = system: 3T3, HT1080 and C8161 cell lines; assay: Cellular translation by 35S-methionine pulse-chase radiolabeling; format: cell-based; details: 10 μM, FIG. 9a
Protocol: As expected for compounds with these properties, the LamR inhibitors of the invention attenuated the translation process.
To label newly synthesized proteins, cells were pulsed with 20 μCi/mL ^35S-methionine radiolabeled amino acid (PerkinElmer) in standard growth media lacking methionine (MP Biomedicals) for 2 hours at 37° C. Following the pulse, normal growth medium was added for the chase to restore normal conditions for 90 minutes. MPER mammalian protein extraction reagent (Pierce) was used to lyse cells and collect protein. To quantity the amount of newly synthesized protein containing the radioisotope, 20 μg total protein was precipitated with 10% TCA for 20 minutes at 4° C. Precipitant was vacuum filtered and washed on glass microfiber filters (Whatman) using 5% TCA followed by 95% ethanol. Filters were dried under a heat lamp prior to addition of 3 mL scintillation fluid to count radioisotope incorporation by events on a Beckman LS3801 scintillation counter (Beckman). For measuring the effects small molecules had on the translation, cells in culture were pre-treated for 18 hours with 1-10 μM of small molecule prior to pulse/chase. As a control for arresting translation, 50 μg/mL cycloheximide was added 3 hours prior to assessment.

HT1080 cells [3] = assay: Growth inhibition of HT1080 cells; format: cell-based, human; details: FIG. 9b
Excerpt: FIGS. 9a and 9b—Targeting LamR ribosomal and growth functions with inhibitors. (a) Inhibition of cellular translation in several cell lines by LamR inhibitor LRI-F (MRF/Face) by radiolabeled methionine pulse-chase. CHX, cycloheximide (b) Effects of treating HT1080 cells with LamR inhibitors. Dose dependent growth effects occur. *p-value <0.0001, n=3.
The analog compound LRI-F, an inhibitor of LamR, affected these functions.

[4] = system: HT1080 human fibrosarcoma cells; assay: Experimental metastasis of luciferase expressing HT1080 cells in SCID mice; format: in vivo
Excerpt: In addition, LamR has been described to be a critical factor of tumor metastasis. Clinical uses of the LamR inhibitors disclosed herein include their use as anti-metastatic anti-tumor agents. In a manner similar to that observed for the above-described in vitro cellular migration assays, compound LRI-F has such anti-metastatic properties in a murine model of experimental metastasis. […] Tumor cells were imaged via their expression of an exogenous firefly luciferase gene using the IVIS in vivo imaging system (Caliper/Xenogen).
Cells were washed once in PBS and re-suspended to a concentration of 1×10^6 cells/mL in PBS. 0.5 cc of the cell suspension (500,000 cells) was injected intravenously via the tail vein into SCID mice. Tumor implantation was monitored with IVIS Spectrum imaging technology (Caliper LS/Xenogen) following intra-peritoneal injection of luciferin substrate. Briefly, a camera is used to detect bioluminescent signal emitted from luciferase expressing cells. Mice are injected i.p. with 0.3 cc of 15 mg/mL beetle luciferin substrate (Promega) in PBS. Mice are anesthetized with isofluoran (2%)/oxygen mixture prior to imaging 5 minutes post substrate injection. Light is collected over a 1 minute imaging period at high binning to detect lung signal. Living Image Software version 3.0 (Caliper LS) is used to quantify and represent light signal.

laminin = assay: In vitro binding affinity of wild type and mutant LamR for laminin (ELISA on laminin pre-coated plates); set-up: species or system murine; details: immobilized laminin
Protocol: as §1, with “Penta-His HRP conjugate (1:500) (Qiagen) was incubated for 2 h at RT and wells were washed three times with wash buffer.” left out, “Controls for buffer alone and binding of a nonspecific protein, A. fulgidus S2p, were also tested. Experiments were performed in triplicate. A binding curve and Kd were generated for wild type and mutant LamR using Prism software.” left out
In total, 14 mutants were analyzed individually (Table 1, FIG. 1a). […] The purity of the proteins was monitored by SDS ? […] Purified recombinant LamR220 (greater than 95% purity) was incubated in serial dilution on pre-coated laminin plates, and binding was detected by anti-His HRP. […]

Molecule: c1ccc2nc3c4ccccc4c4ccccc4c3nc2c1 [DBP, dibenzophenazine, reference compound]
- Effect on LamR binding to laminin (in words) (LamR): not reduced

Molecule: C[C@@H]1C[C@@H]([C@H](O)CC2CC(=O)NC(=O)C2)C(=O)[C@@H](C)C1 [CHX, cycloheximide, reference compound]
- Migration of HT1080 cells to 10% serum after small molecule treatment (HT1080 cells [1]; cells pre-treated 2 hours with 5-10 μM small molecule, CHX 50 μg/mL 3 hours, FIG. 8b): did not result in loss of migratory ability

Molecule: S=C(Nc1ccc2nc3c4ccccc4c4ccccc4c3nc2c1)N1CCOCC1 [MRF, N-dibenzo[a,c]phenazin-11-yl-4-morpholinecarbothioamide]
- Reduction of LamR binding to laminin relative to the vehicle control (DMSO alone) (LamR): approximately 50%
- Effect on LamR binding to laminin (in words) (LamR): block recombinant LamR binding to purified laminin coated surface
- Translation of newly synthesized proteins relative to untreated control [2]: dramatic reduction
- Growth effect in HT1080 cells (HT1080 cells [3]): growth inhibitory effects in HT1080 cells in a dose-dependent manner
- Tumor signal from the lungs ([4]; 0.42 mg/20 g injected subcutaneously once 2 hours post-injection of cells, FIG. 10c-d): decreased tumor signal from the lungs
- Ability of HT1080 cells to implant into the lungs after intravenous injection ([4]; cells pretreated with 10 μM before tail vein injection, SCID mice, FIG. 10a): marked decrease
- Survival of mice compared to cells pretreated with DMSO vehicle ([4]; cells pretreated with 10 μM, FIG. 10b): prolonged survival

Molecule: O=C(NCCO)c1ccc2nc3c4ccccc4c4ccccc4c3nc2c1 [MRT, N-(2-hydroxyethyl)dibenzo[a,c]phenazine-11-carboxamide]
- Reduction of LamR binding to laminin relative to the vehicle control (DMSO alone) (LamR): approximately 50%
- Effect on LamR binding to laminin (in words) (LamR): block recombinant LamR binding to purified laminin coated surface

B1: A. fulgidus S2p: Archaeoglobus fulgidus S2 ribosomal protein, non-laminin binding ortholog of LamR (protein, UniProt O29132 1-197, looked up)
Small ribosomal subunit …: MMEKEYEYLVPPDDYLAAGVHIGTQIKTGDMKKFIFKVRQDGLYVLDIRKLDERIRVAAKFLSRYEPSKILLVAARQYAHKPVQMFSKVVGSDYIVGRFIPGTLTNPMLSEYREPEVVFVNDPAIDKQAVSEATAVGIPVVALCDSNNSSADVDLVIPTNNKGRRALAIVYWLLAREIAKIRGQDFTYSIEDFEAEL
- Laminin binding activity (in words) (laminin): does not exhibit laminin-binding activity; also recorded: no binding
- Inhibition of cell migration towards 10% FBS by recombinant protein (HT1080 cells [1]; recombinant protein 1 μM in lower reservoir, FIG. 3b): not inhibited

Source: patent publication US20140080824A1, “STRUCTURE-GUIDED IDENTIFICATION OF BINDING INTERACTIONS OF HUMAN LAMININ RECEPTOR PRECURSOR WITH LAMININ AND IDENTIFICATION OF COMPOUNDS THAT AFFECT BINDING” (NEW YORK UNIVERSITY, priority 2010, published 2014)
